Source: patent US7923465B2, “Cannabinoid receptor ligands, pharmaceutical compositions containing them, and process for their preparation” (priority 2005, dated 2011)
Where two headings read alike, the source gives them in different places.

Key:
[1] = molecular target: hCB2 (Homo sapiens, UniProt P34972); experiment: In vitro binding assay using hCB2-CHO membranes, [3H]-CP-55,940 displacement (Protocol IV); parameters: expressed in transfected cells; host or cells: CHO (hCB2-CHO, generated in-house); details: 1 h, read-out: % Displacement Protocol IV
Outline: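 Displacement of [3H]-CP-55,940 (0.75 nM) from membranes of CHO cells expressing human CB2 (25-50 μg) was measured in Tris-BSA buffer pH 7.4 with 5 mM MgCl2, 1 mM EDTA, 0.1% BSA, 1 h at 30 °C. Test compounds were at 300 nM final; nonspecific binding defined with 0.5 μM CP-55,940. Values are % displacement of specific binding.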

[2] = molecular target: T1, CB1 (Rattus norvegicus, UniProt P20272); experiment: GTPγS binding assay, CB1 functional assay in rat cerebellar membrane (Protocol VIII); format: biochemical; parameters: 10 μg rat cerebellum membrane; from tissue; host or cells: rat cerebellum membrane, prepared in-house; details: for activation at 1 µM / activation at 0.3 µM: 1 h, read-out: Per Se % Stimulation; for inhibition at 1 µM / inhibition at 0.3 µM: read-out: % Inhibition of WIN-55212-2 induced stimulation; for activation at 0.3 µM: tested at 300 nM; for inhibition at 0.3 µM: tested at 300 nM in presence of 1 μM WIN 55,212-2
Procedure: VIII. Protocol for GTPγS Binding Assay (CB1 Functional Assay in Rat Cerebellar Membrane)
In this GTPγS binding assay, total, basal and nonspecific binding were determined. See Griffin G., Atkinson P. J., Showalter V. M., Martin B. R. and Abood M. E., “Evaluation of cannabinoid receptor agonists and antagonists using the Guanosine-5′-O-(3-(^35S)thio)-triphosphate binding assay in rat cerebellar membranes,” J Pharmacol Exp Ther 285: 553-560, 1998. Three wells for total binding, three wells for basal binding, and three wells for nonspecific binding at 0.2 nM concentration of radioligand were used. Basal binding was defined by 50 μM GDP (Guanosine diphosphate) and non-specific binding was defined by 10 μM unlabeled GTPγS. 10 μg rat cerebellum membrane, 50 μM of GDP, WIN-55212-2 or test compound (1 μM or 300 nM), 10 μM unlabeled GTPγs, and 0.2 nM of [^35S]GTPγS were added into a 96 well plate and the final volume of the reaction mixture was made with GTPγS buffer (50 mM Tris, 3 mM anhydrous MgCl2, 0.2 mM EGTA and 100 mM NaCl pH 7.4) to 200 μl. The plates were incubated at 30° C. for 1 hour. Then the reaction was stopped by filtration using a Whatman GF/B-96 microfilter plate. Three washings were given using Tris-HCl. The radioactivity bound to the brain membrane was retained on the filter disks to which scintillation fluid was added (Microscint PS). Then plates were read for radioactive counts using a Beta Liquid Scintillation Counter (Packard Instruments, Ill., USA).
The rat cerebellar brain membrane was prepared as follow: • 1. Sacrifice the rat and take out the whole brain and separate cerebellum as fast as possible and keep it on ice. • 2. Take the weight of the cerebellum and homogenize in 30 ml of homogenizing buffer (50 mM Tris-HCL containing 1 mM EDTA and 5% sucrose, pH 7.5) using homogenizer in cold condition. • 3. Centrifuge the homogenized cerebellum at 18000 rpm (38000 g) for 15 min at 4° C. • 4. Resuspend the pellet in 5 ml 50 mM Tris-HCL containing 1 mM EDTA and keep it on ice for 30 min. • 5. Pass the membrane through insulin syringe to ensure uniform suspension. • 6. Centrifuge the membrane at 18000 rpm at 4° C. for 20 min. • 7. Reconstitute the pellet in 3 ml of GTPγS buffer and estimate the protein by BCA assay and store the membrane in aliquots of 1000 μg of protein. CB1 Agonist and Antagonist Activity Screening Assay
The test compounds were screened at a final concentration of 1 μM or 300 nM in the absence and presence of 1 μM of WIN 55, 212-2 in the same manner as described in the GTPγS binding assay.
An agonist will stimulate the GTPγS binding over the basal.
An inverse agonist will decrease the basal GTPγS binding and/or produce more than 100% inhibition of the agonist (WIN-55212-2) induced stimulation.
The percent stimulation of GTPγS binding by each test compound at 1 μM or 300 nM concentration in the absence and presence of 1 μM WIN 55, 212-2 was calculated by comparing it with basal specific bound (Basal binding—Non Specific binding) values.

[3] = molecular target: T1, CB1; experiment: Rat CB1 receptor binding using brain membrane, [3H]SR141716A displacement (Protocol I); parameters: CB1 receptor present in a rat brain membrane preparation; from tissue; host or cells: rat brain membrane; inhibition: dose or concentration left out as unconfirmed; details: 1 h
[4] = hCB2-CHO membranes, [3H]-CP-55,940 displacement
[5] = GTPγS binding over basal, rat cerebellar membrane, tested at 1 uM
[6] = GTPγS binding, tested at 1 uM in presence of 1 μM WIN 55,212-2
[7] = rat brain membrane, [3H]SR141716A displacement, read-out: % Displacement Protocol I
[8] = read-out: % Displacement Protocol I, rat brain membrane, [3H]SR141716A displacement
[9] = GTPγS binding over basal, rat cerebellar membrane

hCB2, sequence (P34972 whole entry): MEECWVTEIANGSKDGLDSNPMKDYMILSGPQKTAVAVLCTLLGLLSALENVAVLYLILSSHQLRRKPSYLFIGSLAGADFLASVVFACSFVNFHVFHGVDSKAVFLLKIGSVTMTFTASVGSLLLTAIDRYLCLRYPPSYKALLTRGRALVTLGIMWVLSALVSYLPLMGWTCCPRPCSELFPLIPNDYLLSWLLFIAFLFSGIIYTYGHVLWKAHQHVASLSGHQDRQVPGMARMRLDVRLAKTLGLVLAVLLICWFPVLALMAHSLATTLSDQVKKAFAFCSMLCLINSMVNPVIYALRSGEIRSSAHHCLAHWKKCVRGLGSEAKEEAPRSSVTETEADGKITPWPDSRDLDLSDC
T1 sequence (P20272 whole entry): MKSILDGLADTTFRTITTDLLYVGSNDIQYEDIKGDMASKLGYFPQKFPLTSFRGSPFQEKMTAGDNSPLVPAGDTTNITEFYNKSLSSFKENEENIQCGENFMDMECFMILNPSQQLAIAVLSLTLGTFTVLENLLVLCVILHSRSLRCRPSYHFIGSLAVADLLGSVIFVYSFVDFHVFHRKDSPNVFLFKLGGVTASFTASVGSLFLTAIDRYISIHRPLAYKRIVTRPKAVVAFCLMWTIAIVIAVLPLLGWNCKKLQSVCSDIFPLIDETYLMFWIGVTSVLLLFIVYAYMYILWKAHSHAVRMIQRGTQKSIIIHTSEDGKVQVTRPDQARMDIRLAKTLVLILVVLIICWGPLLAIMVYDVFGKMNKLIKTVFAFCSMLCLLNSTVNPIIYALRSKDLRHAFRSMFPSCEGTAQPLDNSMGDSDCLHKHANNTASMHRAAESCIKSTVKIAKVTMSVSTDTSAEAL

Row | Structure (SMILES) | inhibition at 0.3 µM [1, 4] [%] | Per Se % Stimulation [2, 5] [%] | % Inhibition of WIN-55212-2 induced stimulation [2, 6] [%] | inhibition [3, 7] [%] | melting point [°C] | activation at 1 µM [2, 5] [%] | inhibition at 1 µM [2, 6] [%] | inhibition at 0.3 µM [1] [%] | inhibition [3, 8] [%] | activation at 0.3 µM [2, 9] [%] | inhibition at 0.3 µM ([2]; GTPγS binding) [%]
1 | O=C(NNc1ccccc1)c1nn(-c2ccc(Cl)cc2)c2c1C1CC3CC(C1)CC2C3 [Example 121, N(7)-(N′-phenylamino)-5-(4-chlorophenyl)-5,6-diazatetracyclo[7.3.1.1^3,11.0^4,8]tetradeca-4(8),6-diene-7-carboxamide] | 29.8 | 16.0 | 81.3 | 65.4 | 103 to 105 | – | – | – | – | – | –
2 | O=C(NNc1ccccc1Cl)c1nn(-c2ccc(Cl)cc2)c2c1C1CC3CC(C1)CC2C3 [Example 123, N(7)-(2-Chlorophenylamino)-5-(4-chlorophenyl)-5,6-diazatetracyclo[7.3.1.1^3,11.0^4,8]tetradeca-4(8),6-diene-7-carboxamide] | 47.6 | – | – | 89 | 155 | 13.5 | 99.1 | – | – | – | –
3 | Cl.O=C(NNc1ccc(F)cc1)c1nn(-c2ccc(Cl)cc2)c2c1C1CC3CC(C1)CC2C3 [Example 131, N(7)-(4-Fluorophenylamino)-5-(4-chlorophenyl)-5,6-diazatetracyclo[7.3.1.1^3,11.0^4,8]tetradeca-4(8),6-diene-7-carboxamide hydrochloride] | – | – | – | – | 175 | -1.7 | 86 | 10.8 | 85.2 | – | –
4 | O=C(NNc1ccc(F)cc1F)c1nn(-c2ccc(Cl)cc2)c2c1C1CC3CC(C1)CC2C3 [Example 132, N(7)-(2,4-Difluorophenylamino]-5-(4-chlorophenyl)-5,6-diazatetracyclo[7.3.1.1^3,11.0^4,8]tetradeca-4(8),6-diene-7-carboxamide] | 3.94 | – | – | 64.5 | 195 to 196 | 7.2 | 89.2 | – | – | – | –
5 | O=C(NN(c1ccccc1)c1ccccc1)c1nn(-c2ccc(Cl)cc2)c2c1C1CC3CC(C1)CC2C3 [Example 137, N(7)-(N′,N′-Diphenylamino)-5-(4-chlorophenyl)-5,6-diazatetracyclo[7.3.1.1^3,11.0^4,8]tetradeca-4(8),6-diene-7-carboxamide] | – | – | – | – | 214 | 13 | 76 | – | 76.7 | – | –
6 | O=C(NN1CCCCC1)c1nn(-c2ccc(F)cc2F)c2c1C1CC3CC(C1)CC2C3 [Example 143, N(7)-Piperidino-5-(2,4-difluorophenyl)-5,6-diazatetracyclo[7.3.1.1^3,11.0^4,8]tetradeca-4(8),6-diene-7-carboxamide] | – | – | – | 102 | 215 | 43.1 | 45 | – | – | – | –
7 | O=C(NNc1ccccc1)c1nn(-c2ccc(Cl)cc2Cl)c2c1C1CC3CC(C1)CC2C3 [Example 173, N(7)-Phenylamino-5-(2,4-dichlorophenyl)-5,6-diazatetracyclo[7.3.1.1^3,11.0^4,8]tetradeca-4(8),6-diene-7-carboxamide] | – | – | – | 67.1 | 162 to 163 | 1.3 | 99.5 | – | – | – | –
8 | O=C(NCc1ccccc1Br)c1nn(-c2ccc(Cl)cc2)c2c1C1CCC2C1 (stereo not shown) [Example 224, N(3)-(2-Bromobenzyl)-1-(4-chlorophenyl)-4,5,6,7-tetrahydro-1H-4,7-methano-indazole-3-carboxamide] | – | – | – | – | 141 to 142 | 5 | 78.1 | – | 81.6 | – | –
9 | CC12CCC(C1)C(C)(C)C2NC(=O)c1nn(-c2ccc(Cl)cc2Cl)c2c1C1CCC2C1 (stereo not shown) [Example 241, N(3)-(1,3,3-Trimethylbicyclo[2.2.1]hept-2-yl)-1-(2,4-dichlorophenyl)-4,5,6,7-tetrahydro-1H-4,7-methano-indazole-3-carboxamide] | – | – | – | – | 156 to 159 | – | – | – | 92.5 | 54.7 | 32.9
10 | C[C@@H](NC(=O)c1nn(-c2ccc(Cl)cc2Cl)c2c1C1CCC2C1)c1ccccc1 (stereo partly drawn) [Example 253, N(3)-[R-(1-phenylethyl)]-1-(2,4-dichlorophenyl)-4,5,6,7-tetrahydro-1H-4,7-methano-indazole-3-carboxamide] | – | – | – | 63 | 89 to 92 | – | – | – | – | -9.3 | 79.9
11 | O=C(NNc1ccccc1)c1nn(-c2ccc(Cl)cc2Cl)c2c1C1CCC2C1 (stereo not shown) [Example 256, N(3)-Phenylamino-1-(2,4-dichlorophenyl)-4,5,6,7-tetrahydro-1H-4,7-methano-indazole-3-carboxamide] | – | – | – | 63.3 | 182 to 185 | -21.5 | 69.7 | – | – | – | –
12 | O=C(NNc1ncccc1Cl)c1nn(-c2ccc(Cl)cc2Cl)c2c1C1CCC2C1 (stereo not shown) [Example 267, N(3)-[(3-chloropyridin-2-yl)amino]-1-(2,4-dichlorophenyl)-4,5,6,7-tetrahydro-1H-4,7-methano-indazole-3-carboxamide] | – | – | – | 90 | 95 | – | – | – | – | 12.3 | 43.6
13 | O=C(NC1CCCCC1)c1nn(-c2ccc(F)cc2F)c2c1C1CCC2C1 (stereo not shown) [Example 290, N(3)-Cyclohexyl-1-(2,4-difluorophenyl)-4,5,6,7-tetrahydro-1H-4,7-methano-indazole-3-carboxamide] | – | – | – | – | 119 | 3.8 | 35.3 | – | 80.3 | – | –
14 | O=C(NCc1ccccc1)c1nn(-c2ccc(Cl)cc2Cl)c2c1C1CCC2c2ccccc21 (stereo not shown) [Example 501, N(12)-Benzyl-10-(2,4-dichlorophenyl)-10,11-diazatetracyclo[6.5.2.0^2,7.0^9,13]pentadeca-2,4,6,9(13),11-pentaene-12-carboxamide] | – | – | – | 82.5 | 164 to 166 | 53.7 | 40.1 | – | – | – | –
15 | O=C(NN1CCCCC1)c1nn(-c2ccc(Cl)cc2Cl)c2c1C1CCC2c2ccccc21 (stereo not shown) [Example 502, N(12)-Piperidino-10-(2,4-dichlorophenyl)-10,11-diazatetracyclo[6.5.2.0^2,7.0^9,13]pentadeca-2,4,6,9(13),11-pentaene-12-carboxamide] | – | – | – | 81.3 | 164 to 166 | 1.8 | 91.1 | – | – | – | –
